Assay results as given in ChEMBL document CHEMBL3124884, “Leporizines A-C: epithiodiketopiperazines isolated from an Aspergillus species” (J Nat Prod, 2013).
Calls of active or inactive are those of the source. The calls are words filed in the database; no cut-off is given here.

What was measured:
[1] = tested on: Cystic fibrosis transmembrane conductance regulator (Homo sapiens), P13569 [F508del]; assay: Activity at CFTR F508del mutant (unknown origin) expressed in Fischer rat thyroid epithelial cells co-expressing YFP-H148Q/I152L assessed as loss of baseline transepithelial resistance at 10 uM after 16 to 20 mins by conductance corrector assay; type: cell-based; settings: Epithelial cell
[2] = tested on: Cystic fibrosis transmembrane conductance regulator (Homo sapiens), P13569 [F508del]; assay: Activity at CFTR F508del mutant (unknown origin) expressed in Fischer rat thyroid epithelial cells co-expressing YFP-H148Q/I152L assessed as forskolin/PG-01-induced increase in conductance reversible effect at 10 to 20 uM after 16 to 20 mins by conductance corrector assay in presence of CFInh-172; type: cell-based; settings: Epithelial cell
HepG2 = assay: Cytotoxicity against human HepG2 cells; type: cell-based
[3] = tested on: Cystic fibrosis transmembrane conductance regulator (Homo sapiens), P13569 [F508del]; assay: Activity at CFTR F508del mutant (unknown origin) expressed in Fischer rat thyroid epithelial cells co-expressing YFP-H148Q/I152L assessed as loss of baseline transepithelial resistance at >5 uM after 16 to 20 mins by conductance corrector assay; type: cell-based; settings: Epithelial cell
[4] = tested on: Cystic fibrosis transmembrane conductance regulator (Homo sapiens), P13569 [F508del]; assay: Activity at CFTR F508del mutant (unknown origin) expressed in Fischer rat thyroid epithelial cells co-expressing YFP-H148Q/I152L assessed as forskolin/PG-01-induced increase in conductance reversible effect at >5 uM after 16 to 20 mins by conductance corrector assay; type: cell-based; settings: Epithelial cell
[5] = tested on: Cystic fibrosis transmembrane conductance regulator (Homo sapiens), P13569 [F508del]; assay: Activity at CFTR F508del mutant (unknown origin) expressed in Fischer rat thyroid epithelial cells co-expressing YFP-H148Q/I152L assessed as forskolin/PG-01-induced increase in conductance reversible effect at <= 5 uM after 16 to 20 hrs by conductance corrector assay; settings: Epithelial cell
[6] = tested on: Cystic fibrosis transmembrane conductance regulator (Homo sapiens), P13569 [F508del]; assay: Activity at CFTR F508del mutant (unknown origin) expressed in Fischer rat thyroid epithelial cells co-expressing YFP-H148Q/I152L assessed as loss of baseline transepithelial resistance at 2.5 to 20 uM after 16 to 20 mins by conductance corrector assay; type: cell-based; settings: Epithelial cell
[7] = tested on: Cystic fibrosis transmembrane conductance regulator (Homo sapiens), P13569 [F508del]; assay: Activity at CFTR F508del mutant (unknown origin) expressed in Fischer rat thyroid epithelial cells co-expressing YFP-H148Q/I152L assessed as forskolin/PG-01-induced increase in conductance reversible effect at 2.5 to 20 uM after 16 to 20 mins by conductance corrector assay; type: cell-based; settings: Epithelial cell

Cystic fibrosis transmembrane conductance regulator (Homo sapiens), P13569 [F508del], sequence (P13569 as listed by the source): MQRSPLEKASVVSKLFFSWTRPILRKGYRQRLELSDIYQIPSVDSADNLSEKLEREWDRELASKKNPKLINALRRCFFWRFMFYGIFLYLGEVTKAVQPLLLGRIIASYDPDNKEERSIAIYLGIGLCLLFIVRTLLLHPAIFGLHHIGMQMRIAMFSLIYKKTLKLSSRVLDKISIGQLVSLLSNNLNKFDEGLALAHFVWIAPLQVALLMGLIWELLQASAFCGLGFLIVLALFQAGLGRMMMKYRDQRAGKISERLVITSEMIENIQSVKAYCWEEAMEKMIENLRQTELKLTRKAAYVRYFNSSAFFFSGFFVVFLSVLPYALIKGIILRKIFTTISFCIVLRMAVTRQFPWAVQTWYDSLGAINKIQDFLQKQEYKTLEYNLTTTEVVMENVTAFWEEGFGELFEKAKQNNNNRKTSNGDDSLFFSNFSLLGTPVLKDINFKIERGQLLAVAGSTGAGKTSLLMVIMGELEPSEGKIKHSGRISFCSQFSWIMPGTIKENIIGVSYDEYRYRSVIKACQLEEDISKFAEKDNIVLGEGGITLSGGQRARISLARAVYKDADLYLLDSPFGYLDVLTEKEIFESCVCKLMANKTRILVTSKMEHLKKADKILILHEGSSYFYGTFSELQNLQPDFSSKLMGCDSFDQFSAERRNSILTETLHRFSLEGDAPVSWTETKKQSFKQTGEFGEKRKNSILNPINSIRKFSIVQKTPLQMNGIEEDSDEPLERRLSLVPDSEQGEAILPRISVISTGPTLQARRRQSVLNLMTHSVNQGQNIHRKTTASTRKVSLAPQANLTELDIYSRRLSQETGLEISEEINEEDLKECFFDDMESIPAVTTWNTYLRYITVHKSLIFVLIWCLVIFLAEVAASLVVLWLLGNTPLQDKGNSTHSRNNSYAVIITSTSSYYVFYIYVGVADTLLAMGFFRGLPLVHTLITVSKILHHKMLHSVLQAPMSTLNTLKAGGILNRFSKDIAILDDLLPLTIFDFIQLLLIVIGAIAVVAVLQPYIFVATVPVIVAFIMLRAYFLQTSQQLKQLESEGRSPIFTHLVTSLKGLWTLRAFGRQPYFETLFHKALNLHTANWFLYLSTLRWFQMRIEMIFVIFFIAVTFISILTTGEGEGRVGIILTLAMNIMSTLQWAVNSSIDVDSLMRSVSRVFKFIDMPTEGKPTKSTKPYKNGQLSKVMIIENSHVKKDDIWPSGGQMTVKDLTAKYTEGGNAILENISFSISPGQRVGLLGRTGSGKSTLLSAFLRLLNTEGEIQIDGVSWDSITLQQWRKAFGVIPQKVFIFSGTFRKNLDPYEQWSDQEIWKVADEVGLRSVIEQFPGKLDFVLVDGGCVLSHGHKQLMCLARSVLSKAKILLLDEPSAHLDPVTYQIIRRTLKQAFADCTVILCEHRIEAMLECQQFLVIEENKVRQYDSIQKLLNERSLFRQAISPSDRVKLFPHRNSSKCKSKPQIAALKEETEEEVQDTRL

Row | Compound | Activity [1] | Activity [2] | Activity (HepG2) | Activity [3] | Activity [4] | Activity [5] | Activity [6] | Activity [7]
1 | COc1ccc(Cl)cc1Nc1nc(-c2sc(NC(=O)C(C)(C)C)nc2C)cs1 | Active | – | – | – | – | – | – | –
2 | C[C@@H]1OC2=C(C(=O)C3(O)C(C2)N2C(=O)[C@@]45SS[C@@]2(C(=O)N4[C@H]2Nc4ccccc4C2(O)[C@H]5O)[C@@H]3O)C1(C)C (some centres undefined) | – | Active | Toxic | Active | Active | inactive | – | –
3 | CS[C@]12C(=O)N3[C@H]4Nc5ccccc5C4(O)[C@@H](O)[C@@]3(SC)C(=O)N1C1CC3=C(C(=O)C1(O)[C@H]2O)C(C)(C)[C@H](C)O3 (some centres undefined) | – | – | Non-toxic | – | – | – | inactive | inactive
4 | C[C@@H]1OC2=C(C(=O)C3(O)C(C2)N2C(=O)[C@@]45SSS[C@@]2(C(=O)N4[C@H]2Nc4ccccc4C2(O)[C@H]5O)[C@@H]3O)C1(C)C (some centres undefined) | – | Active | Toxic | Active | Active | inactive | – | –
